From article PMC4669722, “Antitumour potential of BPT: a dual inhibitor of cdk4 and tubulin polymerization” (Cell Death & Disease, 2015) come the findings set out here.

In one data set the target is MAPK1 (Homo sapiens, UniProt P27361). Briefly: Kinase profiling (Millipore), MAPK1. It counts as biochemical. As to the method: (§1) The in vitro kinase assays for testing against Cdk4-cyclin D1, Cdk2-cyclin A, Cdk1-cyclin B1 and Cdk9-cyclin T1 were performed in-house. The methodology and results have been reported previously.[20], [30], [31], [32], [45] The kinase profiling for 58 representative kinases was carrried out commercially at Millipore Bioscience Division, Livingston, UK.
Chain of MAPK1 (P27361 2-379 limits assumed): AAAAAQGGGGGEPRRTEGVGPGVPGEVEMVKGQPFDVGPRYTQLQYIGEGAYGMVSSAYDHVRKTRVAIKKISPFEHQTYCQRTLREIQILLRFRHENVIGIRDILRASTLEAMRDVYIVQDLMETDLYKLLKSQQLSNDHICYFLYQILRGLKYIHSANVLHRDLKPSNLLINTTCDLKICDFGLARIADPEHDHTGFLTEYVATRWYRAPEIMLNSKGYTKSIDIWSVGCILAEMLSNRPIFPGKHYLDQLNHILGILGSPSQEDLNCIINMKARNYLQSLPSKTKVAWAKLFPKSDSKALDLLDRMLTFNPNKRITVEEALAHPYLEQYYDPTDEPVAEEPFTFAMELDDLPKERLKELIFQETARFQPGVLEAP

Data set [1] can be described thus: Pharmacokinetics in BALB/c mice. The format is in vivo. On the procedure:
Oral and intravenous pharmacokinetic studies of BPT were carried out in BALB/c male mice of age 4–6 weeks, by administering BPT orally and intravenous formulation at dose of 10 mg/kg for oral and 1 mg/kg for intravenous. Plasma samples were collected at appropriate time points between the range 0 and 24 h, and analysed by LC-MS-MS. Mean plasma concentration calculated and data were further analysed to determine PK parameters such as t1/2, Cmax, ACU, Vd and CL, using WinNonlin 5.3 software package (Pharsight Company, Princeton, NJ, USA).

The next data set concerns pBluescript plasmid DNA. Briefly: EtBr displacement assay. It counts as binding. To be noted: 1.3 μM EtBr, pH 7.4. On the procedure:
The assays were performed in a 96-well plate with clear bottom (Costar, Washington, DC, USA). The assay involved the addition of 10 μl of 10 × concentrated stock solution of compounds (dissolved in DMSO and further diluted in EtBr displacement assay buffer) to 90 μl of reaction mixture containing 6 μg of purified pBlueScript DNA and 1.3 μM EtBr in EtBr displacement assay buffer with final pH 7.4. Equivalent amounts of DMSO were added to the vehicle controls. In addition to control samples (DNA+EtBr), test samples (DNA+EtBr+test compounds), blank 1 (EtBr only), blank 2 (DNA only), wells containing DNA and compound were also prepared to test any change in the background fluorescence readings. The reduction in relative fluorescence counts was monitored ([…]) and recorded after 1 min equilibration time. Fascaplysin and actinomycin D, which are known to intercalate d-s DNA, were used as standard compounds in assay. The mean control and test readings were corrected by subtracting blank readings. The percentage fluorescence in the test samples in reaction with control samples was calculated by using following formula: […]

A further data set has as its target Cdk7-cyclin H (Homo sapiens, UniProt P50613). Description: Kinase profiling (Millipore), Cdk7-cyclin H. The format is biochemical. As to the method: as §1
In a further data set the target is Cdk5-p35 (Homo sapiens, UniProt Q00535). Briefly: Kinase profiling (Millipore), Cdk5-p35. The format is biochemical. As to the method: as §1
Chain of Cdk5-p35 (Q00535 whole entry): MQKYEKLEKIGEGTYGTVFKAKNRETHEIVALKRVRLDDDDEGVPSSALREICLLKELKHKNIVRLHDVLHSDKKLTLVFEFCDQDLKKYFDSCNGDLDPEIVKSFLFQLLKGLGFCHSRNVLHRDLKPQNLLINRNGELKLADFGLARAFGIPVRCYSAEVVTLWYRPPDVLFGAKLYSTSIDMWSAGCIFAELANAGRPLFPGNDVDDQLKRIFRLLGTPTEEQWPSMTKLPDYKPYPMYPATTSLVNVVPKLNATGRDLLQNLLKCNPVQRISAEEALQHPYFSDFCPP
Chain of Cdk5-p35 (Q15078 whole entry partner): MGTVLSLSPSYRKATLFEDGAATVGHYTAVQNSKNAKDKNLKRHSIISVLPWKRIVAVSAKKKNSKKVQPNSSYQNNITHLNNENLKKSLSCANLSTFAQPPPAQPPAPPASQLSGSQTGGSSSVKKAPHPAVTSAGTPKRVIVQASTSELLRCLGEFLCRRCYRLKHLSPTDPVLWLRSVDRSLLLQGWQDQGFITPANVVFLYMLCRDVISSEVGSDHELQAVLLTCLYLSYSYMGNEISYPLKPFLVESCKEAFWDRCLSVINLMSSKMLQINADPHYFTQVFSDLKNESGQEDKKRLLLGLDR
In the next data set the target is Cdk6-cyclin D1 (Homo sapiens, UniProt Q00534). Briefly: Kinase profiling (Millipore), Cdk6-cyclin D1. It counts as biochemical. As to the method:
as §1

Another data set deals with NCI-H358 cells. Description: Flow cytometric cell cycle analysis, synchronized NCI-H358. It counts as cell-based, human. The conditions noted are these: NCI-H358 after nocodazole block, released in presence of BPT, within 12 h. On the procedure:
(§2) The untreated (control) and treated (with test compounds) cells were harvested by trypsinization, washed once with PBS and then fixed in 70% chilled (−20 °C) ethanol for minimum 1 h. After the fixation step, cells were centrifuged for 5 min at 3000 × g at room temperature, and the pellet was suspended in PBS containing 50 μg/ml propidium iodide (Sigma-Aldrich, Dorset, UK; cat. no. P-4170) and 0.5 mg/ml DNase-free ribonuclease (Sigma-Aldrich; cat. no. R-5503). The cells were stained for 1 h in the dark at 4 °C. Cell cycle analysis was performed on the Beckman Coulter (Epics Altra) fluorescence-activated cell sorter (Beckman Coulter UK Ltd, Buckinghamshire, UK). To gate all the events that represent single cells, and not cell doublets or cell clumps, the following analyses were performed on the samples. Cytograms of propidium iodide fluorescence peak signal versus integrated fluorescence or the linear signal were plotted. All data points on the straight line were isolated in a single gate and the gated data was further used for plotting a histogram that represents a complete cell cycle. The total number of events was not allowed to exceed 200 events per s. Data acquisition was stopped after a minimum of 10 000 events had been collected.

The subject of the next data set is Calu-1 cells. Description: Cell cycle analysis, Calu-1. It counts as cell-based, human. The conditions noted are these: p53-null, non-functional mitotic-spindle checkpoint. On the procedure: as §2
Fig. S4. Cell cycle analysis of calu-1 cells upon BPT treatment. […]

A further data set has as its target Cdk1-cyclin B1 (Homo sapiens, UniProt P06493). Briefly: In vitro kinase assay, Cdk1-cyclin B1 (in-house). The format is biochemical. The conditions noted are these: three independent experiments; read-out: IC50 (mean±S.D.), Cdk1-cyclin B1. On the procedure: as §1
In a further data set the target is Plk3 (Homo sapiens, UniProt Q9H4B4). Description: Kinase profiling (Millipore), Plk3. It counts as biochemical. On the procedure: as §1
Chain of Plk3 (Q9H4B4 whole entry): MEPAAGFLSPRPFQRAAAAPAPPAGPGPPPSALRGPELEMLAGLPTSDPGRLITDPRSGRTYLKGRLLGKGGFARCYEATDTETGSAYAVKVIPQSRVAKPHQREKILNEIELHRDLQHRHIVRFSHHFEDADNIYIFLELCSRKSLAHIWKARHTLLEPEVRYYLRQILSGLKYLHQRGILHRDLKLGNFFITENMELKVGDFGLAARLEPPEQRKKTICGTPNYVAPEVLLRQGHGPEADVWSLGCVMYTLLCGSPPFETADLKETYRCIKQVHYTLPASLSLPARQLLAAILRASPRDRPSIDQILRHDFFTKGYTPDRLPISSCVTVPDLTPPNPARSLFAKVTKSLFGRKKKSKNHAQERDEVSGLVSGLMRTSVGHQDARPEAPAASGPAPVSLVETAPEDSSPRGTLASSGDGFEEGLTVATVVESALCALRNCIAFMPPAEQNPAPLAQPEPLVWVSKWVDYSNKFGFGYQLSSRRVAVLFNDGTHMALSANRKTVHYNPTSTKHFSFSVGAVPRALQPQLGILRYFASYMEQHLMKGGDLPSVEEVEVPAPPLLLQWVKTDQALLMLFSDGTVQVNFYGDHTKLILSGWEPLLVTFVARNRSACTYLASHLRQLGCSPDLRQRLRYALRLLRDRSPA
Another data set addresses Cdk2-cyclin A (Homo sapiens, UniProt P24941). Description: In vitro kinase assay, Cdk2-cyclin A (in-house). To be noted: three independent experiments; read-out: IC50 (mean±S.D.), Cdk2-cyclin A. It counts as biochemical. On the procedure: as §1
A further data set concerns the target IGF-1 R (Homo sapiens, UniProt P08069). Briefly: Kinase profiling (Millipore), IGF-1 R. It counts as biochemical. As to the method:
as §1

Data set [2] deals with panel of 58 representative kinases. Briefly: Kinase profiling, panel of 58 representative kinases. The format is biochemical. To be noted: at 10 μM. On the procedure:
as §1

Where [3] appears, read: male, mouse, plasma, 1.0 mg/kg intravenous.

Molecules are shown by their SMILES. Entries after “also recorded” stand apart in the source; their conditions may differ.

Chain of Cdk6-cyclin D1 (P24385 whole entry): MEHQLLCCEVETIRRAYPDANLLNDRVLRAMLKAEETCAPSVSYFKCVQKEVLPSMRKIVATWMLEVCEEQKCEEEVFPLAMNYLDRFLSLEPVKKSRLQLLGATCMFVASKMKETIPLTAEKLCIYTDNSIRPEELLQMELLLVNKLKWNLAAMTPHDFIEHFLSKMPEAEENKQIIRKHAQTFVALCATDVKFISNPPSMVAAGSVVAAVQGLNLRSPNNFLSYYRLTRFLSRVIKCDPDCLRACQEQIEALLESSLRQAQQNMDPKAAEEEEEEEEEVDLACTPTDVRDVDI
Chain of Cdk6-cyclin D1 (Q00534 whole entry): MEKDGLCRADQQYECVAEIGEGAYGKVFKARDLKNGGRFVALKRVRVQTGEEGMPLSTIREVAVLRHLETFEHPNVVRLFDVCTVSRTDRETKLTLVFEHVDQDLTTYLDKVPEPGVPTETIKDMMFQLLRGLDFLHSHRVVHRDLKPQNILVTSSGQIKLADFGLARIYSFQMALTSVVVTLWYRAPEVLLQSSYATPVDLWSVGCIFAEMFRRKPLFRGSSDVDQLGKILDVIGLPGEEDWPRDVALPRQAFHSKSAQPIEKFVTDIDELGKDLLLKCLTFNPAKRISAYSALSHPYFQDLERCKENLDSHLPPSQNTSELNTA
Chain of Cdk1-cyclin B1 (P06493 whole entry): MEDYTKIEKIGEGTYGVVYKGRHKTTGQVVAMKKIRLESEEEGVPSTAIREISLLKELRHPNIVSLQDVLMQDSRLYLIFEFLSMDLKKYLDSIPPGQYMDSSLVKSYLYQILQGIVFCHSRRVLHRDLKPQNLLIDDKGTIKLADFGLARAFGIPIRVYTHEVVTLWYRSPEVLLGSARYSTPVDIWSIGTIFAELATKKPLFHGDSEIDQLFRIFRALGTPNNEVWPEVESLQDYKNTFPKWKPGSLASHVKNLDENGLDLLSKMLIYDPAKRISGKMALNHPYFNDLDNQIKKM
Chain of Cdk1-cyclin B1 (P14635 whole entry partner): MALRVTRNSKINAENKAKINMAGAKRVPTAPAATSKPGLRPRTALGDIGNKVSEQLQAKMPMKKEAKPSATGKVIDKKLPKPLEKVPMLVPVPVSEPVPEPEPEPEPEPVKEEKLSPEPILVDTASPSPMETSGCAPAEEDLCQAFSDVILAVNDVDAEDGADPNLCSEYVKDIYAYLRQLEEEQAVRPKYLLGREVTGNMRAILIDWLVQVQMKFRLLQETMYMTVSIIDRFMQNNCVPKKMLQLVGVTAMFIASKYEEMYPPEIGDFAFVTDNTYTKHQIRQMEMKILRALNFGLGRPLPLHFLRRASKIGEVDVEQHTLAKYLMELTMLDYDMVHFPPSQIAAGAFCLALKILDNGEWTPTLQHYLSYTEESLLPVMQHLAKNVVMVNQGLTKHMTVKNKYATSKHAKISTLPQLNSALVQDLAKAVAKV
Chain of Cdk7-cyclin H (P50613 whole entry): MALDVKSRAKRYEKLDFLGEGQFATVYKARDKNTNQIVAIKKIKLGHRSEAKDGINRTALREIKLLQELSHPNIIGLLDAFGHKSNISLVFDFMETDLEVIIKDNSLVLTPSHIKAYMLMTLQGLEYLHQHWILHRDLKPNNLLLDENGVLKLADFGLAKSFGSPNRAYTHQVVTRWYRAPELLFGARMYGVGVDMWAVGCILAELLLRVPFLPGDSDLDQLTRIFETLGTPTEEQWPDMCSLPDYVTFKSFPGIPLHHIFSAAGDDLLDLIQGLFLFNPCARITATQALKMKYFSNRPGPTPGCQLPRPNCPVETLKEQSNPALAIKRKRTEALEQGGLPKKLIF
Chain of Cdk7-cyclin H (P51946 whole entry partner): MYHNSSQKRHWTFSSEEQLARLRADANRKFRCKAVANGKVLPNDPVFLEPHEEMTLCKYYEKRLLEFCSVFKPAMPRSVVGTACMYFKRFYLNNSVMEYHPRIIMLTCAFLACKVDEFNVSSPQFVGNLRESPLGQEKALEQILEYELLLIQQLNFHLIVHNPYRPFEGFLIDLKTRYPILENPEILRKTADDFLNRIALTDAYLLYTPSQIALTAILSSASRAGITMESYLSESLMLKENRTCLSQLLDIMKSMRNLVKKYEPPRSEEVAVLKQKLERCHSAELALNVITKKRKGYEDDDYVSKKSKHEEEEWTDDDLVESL
Chain of Cdk7-cyclin H (P51948 whole entry partner): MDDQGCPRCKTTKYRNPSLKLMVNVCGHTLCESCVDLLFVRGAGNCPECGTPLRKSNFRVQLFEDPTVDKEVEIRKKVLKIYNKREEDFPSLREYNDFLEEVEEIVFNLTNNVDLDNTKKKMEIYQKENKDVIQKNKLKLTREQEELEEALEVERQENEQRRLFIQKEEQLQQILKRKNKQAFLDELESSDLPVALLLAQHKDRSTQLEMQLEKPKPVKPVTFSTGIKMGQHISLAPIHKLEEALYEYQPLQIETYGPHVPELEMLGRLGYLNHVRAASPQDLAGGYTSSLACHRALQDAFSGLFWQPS

Usually IC50 stands for the concentration at which inhibition is half-maximal. In general, AUC(0-inf) refers to total exposure, with the tail of the curve extrapolated. A lower AUC(0-inf) goes with low exposure. By AUC(0-t) is commonly meant the area under the concentration-time curve up to a stated or last time point. For orientation: Cmax means the peak of the concentration-time curve. What is called Vd is the apparent volume that relates the amount in the body to the concentration in plasma or blood. Read a high Vd as extensive tissue distribution. A word on the half-life: it is the time needed for the level to fall by half in the phase considered. A high value points to slow loss. Consider `O=C(c1ccccc1-c1ccccc1)N1CCc2c([nH]c3ccccc23)C1` [BPT, 2-(biphenyl-2-carbonyl)-2,3,4,9-tetrahydro-1H-pyrido[3,4-b]indole], for which the half-inhibitory concentration (IC50) at MAPK1 is more than 10 µM; at Cdk7-cyclin H, more than 10 µM; at Cdk5-p35 it was more than 10 µM; against Cdk6-cyclin D1, more than 10 µM; on Cdk1-cyclin B1, more than 500 µM; against Plk3, more than 10 µM. Also, the IC50 at Cdk2-cyclin A was 831 ± 15.5 µM; at IGF-1 R it was more than 10 µM. In addition, in data set [1], the oral bioavailability result is recorded as “poor”. Also, in data set [1], the “plasma exposure after intravenous administration” value is recorded as “good plasma exposure”. Besides, the CL in [1] (1.0 mg/kg intravenous) amounted to 95.8 ml/min per kg. The same molecule registered an AUC(0-inf) in [1] (setting [3]) of 174 ng·h/mL. The AUC(0-t) in data set [1] (setting [3]) amounted to 170 ng·h/mL; in [1] (male, mouse, plasma, oral, 10 mg/kg per os), 17.7 ng·h/mL. In data set [1] (setting [3]), the C0 was 888 ng/mL. The molecule further gave a Cmax in data set [1] (setting [3]) of 413 ng/mL. The molecule further had a Vd in data set [1] (setting [3]) of 1.56 L/kg. This molecule had a half-life in data set [1] (setting [3]) of 11.4 min. In addition, in the data set on pBluescript plasmid DNA, the “EtBr displacement from DNA” value is “incapable of displacing; also recorded: does not displace ethidium bromide; also recorded: No EtBr displacement up to 100 μM ^a”. Moreover, the “G0/G1- and S-phase cells entering the G2/M phase” value in the data set with NCI-H358 cells is listed as more than 50%. Further, the “phase of cell cycle block in Calu-1 cells” value with Calu-1 cells was “blocks only at the G0/G1 phase”. Besides, the “inhibition of other kinases (panel of 58)” value in data set [2] was “no inhibition against other kinases; also recorded: does not inhibit any kinase to any appreciable degree”.
